Measurements: PubChem BioAssay AID330 (DTP/NCI, 2004)
Where “and” joins values, the source holds several entries; their conditions need not be identical. Equal values may be shown once. Toxic doses and inconclusive results are not listed.

Tested on: P388 leukemia ip, CD2F1 mice, survival T/C
Experiment: NCI In Vivo Anticancer Drug Screen. Data for tumor model P388 Leukemia (intraperitoneal) in CD2F1 (CDF1) mice
Details: endpoint: median survival time, higher = longer survival
Summary of the method: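 Mice carrying the transplanted tumor received test compound or vehicle. Survival was recorded in each group, and the value is the treated-group measurement divided by that of the vehicle-treated control group.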

[1] = dose: 60.0 mg/kg/injection, schedule: Q01DX005 (ip), vehicle: saline with Tween-80
[2] = dose: 120.0 mg/kg/injection, schedule: Q01DX005 (ip), vehicle: saline with Tween-80
[3] = dose: 12.5 mg/kg/injection, schedule: Q04DX003 (ip), vehicle: Klucel (hydroxypropylcellulose) (HPC)
[4] = dose: 25.0 mg/kg/injection, schedule: Q04DX003 (ip), vehicle: Klucel (hydroxypropylcellulose) (HPC)
[5] = dose: 50.0 mg/kg/injection, schedule: Q04DX003 (ip), vehicle: Klucel (hydroxypropylcellulose) (HPC)
[6] = dose: 60.0 mg/kg/injection, schedule: Q01DX005 (ip), vehicle: Klucel (hydroxypropylcellulose) (HPC)
[7] = dose: 120.0 mg/kg/injection, schedule: Q01DX005 (ip), vehicle: Klucel (hydroxypropylcellulose) (HPC)
[8] = dose: 240.0 mg/kg/injection, schedule: Q01DX005 (ip), vehicle: Klucel (hydroxypropylcellulose) (HPC)
[9] = dose: 50.0 mg/kg/injection, schedule: Q01DX009 (ip), vehicle: saline with Tween-80
[10] = dose: 100.0 mg/kg/injection, schedule: Q01DX009 (ip), vehicle: saline with Tween-80
[11] = dose: 200.0 mg/kg/injection, schedule: Q01DX009 (ip), vehicle: saline with Tween-80
[12] = dose: 50.0 mg/kg/injection, schedule: Q01DX009 (ip), vehicle: saline
[13] = dose: 100.0 mg/kg/injection, schedule: Q01DX009 (ip), vehicle: saline
[14] = dose: 200.0 mg/kg/injection, schedule: Q01DX009 (ip), vehicle: saline
[15] = dose: 50.0 mg/kg/injection, schedule: Q01DX005 (ip), vehicle: Klucel (hydroxypropylcellulose) (HPC)
[16] = dose: 100.0 mg/kg/injection, schedule: Q01DX005 (ip), vehicle: Klucel (hydroxypropylcellulose) (HPC)
[17] = dose: 12.5 mg/kg/injection, schedule: Q01DX005 (ip), vehicle: Klucel (hydroxypropylcellulose) (HPC)
[18] = dose: 25.0 mg/kg/injection, schedule: Q01DX005 (ip), vehicle: Klucel (hydroxypropylcellulose) (HPC)

Q: How did the T/C (dose: 100.0 mg/kg/injection, schedule: Q01DX001 (ip), vehicle: saline with Tween-80) turn out when `COC(=O)Nc1c2ccccc2nc2c1c(C)c(C)c1ccccc12` was run?
A: 88 % of control

Q: And the T/C (dose: 200.0 mg/kg/injection, schedule: Q01DX001 (ip), vehicle: saline with Tween-80)?
A: 88 % of control

Q: And the T/C (dose: 400.0 mg/kg/injection, schedule: Q01DX001 (ip), vehicle: saline with Tween-80)?
A: 95 % of control

Q: `Nc1nc(N)c2nc(-c3ccc([N+](=O)[O-])cc3)c(Cl)nc2n1` was tested. Which T/C (dose: 15.0 mg/kg/injection, schedule: Q01DX005 (ip), vehicle: saline with Tween-80) did it give?
A: 98 % of control

Q: What about the T/C (dose: 30.0 mg/kg/injection, schedule: Q01DX005 (ip), vehicle: saline with Tween-80) of the same compound?
A: 98 % of control

Q: And the T/C [1]?
A: 95 % of control and 98 % of control

Q: And the T/C [2]?
A: 92 % of control

Q: For `O=C(CCCC(=O)Nc1cccc2[nH]c3ccccc3c(=O)c12)Nc1cccc2[nH]c3ccccc3c(=O)c12`, which T/C [1] is on record?
A: 100 % of control

Q: And the T/C [2]?
A: 88 % of control

Q: And the T/C (dose: 240.0 mg/kg/injection, schedule: Q01DX005 (ip), vehicle: saline with Tween-80)?
A: 100 % of control

Q: What does the source list for `O=C(C(Br)C(Br)c1ccccc1)C(Br)C(Br)c1ccccc1` (centres undefined)?
A: T/C (dose: 100.0 mg/kg/injection, schedule: Q04DX003 (ip), vehicle: saline sonified): 104 % of control; T/C (dose: 200.0 mg/kg/injection, schedule: Q04DX003 (ip), vehicle: saline sonified): 100 % of control; T/C (dose: 400.0 mg/kg/injection, schedule: Q04DX003 (ip), vehicle: saline sonified): 95 % of control

Q: For `CS/C(=C1/C(=O)N(c2ccccc2)N=C1C)N1CC1`, which T/C (dose: 6.25 mg/kg/injection, schedule: Q04DX003 (ip), vehicle: Klucel (hydroxypropylcellulose) (HPC)) is on record?
A: 99 % of control

Q: What about the T/C [3] of the same compound?
A: 100 % of control

Q: And the T/C [4]?
A: 102 % of control and 109 % of control

Q: And the T/C [5]?
A: 90 % of control

Q: Which T/C [6] does the source give for `O=C(NC1(N2CCOCC2)CC1)c1ccc(Cl)cc1` here?
A: 88 % of control

Q: And the T/C [7]?
A: 103 % of control

Q: And the T/C [8]?
A: 103 % of control

Q: With `N#CC1(C#N)C(C#N)(C#N)C12CCCCCC2` as the compound, how does the T/C [3] read?
A: 106 % of control

Q: And the T/C [4]?
A: 112 % of control

Q: What about the T/C [5] of the same compound?
A: 95 % of control

Q: For `C[C@H]1COC(c2ccccn2)=N1`, which T/C (dose: 60.0 mg/kg/injection, schedule: Q01DX005 (ip), vehicle: saline) is on record?
A: 105 % of control

Q: And the T/C (dose: 120.0 mg/kg/injection, schedule: Q01DX005 (ip), vehicle: saline)?
A: 106 % of control

Q: What about the T/C (dose: 240.0 mg/kg/injection, schedule: Q01DX005 (ip), vehicle: saline) of the same compound?
A: 96 % of control

Q: What does the source list for `C=CC(C)(Cl)C(Cl)/C=C/C(C=O)=C/Cl` (centres undefined)?
A: T/C (dose: 1.75 mg/kg/injection, schedule: Q01DX009 (ip), vehicle: Klucel (hydroxypropylcellulose) (HPC)): 101 % of control; T/C (dose: 3.5 mg/kg/injection, schedule: Q01DX009 (ip), vehicle: Klucel (hydroxypropylcellulose) (HPC)): 100 % of control; T/C (dose: 7.0 mg/kg/injection, schedule: Q01DX009 (ip), vehicle: Klucel (hydroxypropylcellulose) (HPC)): 101 % of control; T/C (dose: 14.0 mg/kg/injection, schedule: Q01DX009 (ip), vehicle: Klucel (hydroxypropylcellulose) (HPC)): 100 % of control

Q: Which T/C [9] does the source give for `COc1cccc2[nH]c(-c3ccccn3)nc12` here?
A: 95 % of control

Q: And the T/C [10]?
A: 104 % of control

Q: What about the T/C [11] of the same compound?
A: 95 % of control

Q: With `COc1cccc2c1C(=O)c1c(O)c3c(c(O)c1C2=O)C[C@@H](C(=O)CO)C[C@@H]3OC1CC(N)C(O)C(C)O1` (some centres undefined) as the compound, how does the T/C (dose: 6.25 mg/kg/injection, schedule: Q04DX003 (ip), vehicle: water) read?
A: 105 % of control

Q: And the T/C (dose: 12.5 mg/kg/injection, schedule: Q04DX003 (ip), vehicle: water)?
A: 105 % of control

Q: And the T/C (dose: 25.0 mg/kg/injection, schedule: Q04DX003 (ip), vehicle: water)?
A: 124 % of control

Q: What does the source list for `CCOC(=O)C1=CCC(n2cc(F)c(=O)[nH]c2=O)O1` (centres undefined)?
A: T/C [12]: 98 % of control; T/C [13]: 101 % of control; T/C [14]: 99 % of control; T/C (dose: 400.0 mg/kg/injection, schedule: Q01DX009 (ip), vehicle: saline): 110 % of control

Q: How did the T/C (dose: 50.0 mg/kg/injection, schedule: Q01DX009 (ip), vehicle: Klucel (hydroxypropylcellulose) (HPC)) turn out when `COc1ccc(CCNC2(C#N)CCCCC2)cc1OC` was run?
A: 98 % of control

Q: And the T/C (dose: 100.0 mg/kg/injection, schedule: Q01DX009 (ip), vehicle: Klucel (hydroxypropylcellulose) (HPC))?
A: 102 % of control

Q: How did the T/C [15] turn out when `Cc1cccc(C)c1-n1c(C)nc2c(c(C)c(C)n2-c2ccccc2)c1=N` was run?
A: 101 % of control

Q: And the T/C [16]?
A: 94 % of control

Q: `O=C1Nc2ccccc2/C1=N/n1c(-c2ccccc2)nc2ccccc2c1=O` was tested. Which T/C [17] did it give?
A: 97 % of control

Q: What about the T/C [18] of the same compound?
A: 97 % of control

Q: And the T/C [15]?
A: 87 % of control

Q: What about the T/C [16] of the same compound?
A: 90 % of control

Q: What about the T/C (dose: 200.0 mg/kg/injection, schedule: Q01DX005 (ip), vehicle: Klucel (hydroxypropylcellulose) (HPC)) of the same compound?
A: 89 % of control

Q: What does the source list for `COC(=O)c1ccc(C(=O)OC)c2nc3cc([N+](=O)[O-])ccc3nc12`?
A: T/C (dose: 60.0 mg/kg/injection, schedule: Q01DX005 (ip), vehicle: suspension in saline): 100 % of control; T/C (dose: 120.0 mg/kg/injection, schedule: Q01DX005 (ip), vehicle: suspension in saline): 102 % of control

Q: Which T/C [12] does the source give for `CC(C)=CC1C(C(=O)OC23C=CC(CC2C)C3)C1(C)C` (centres undefined) here?
A: 104 % of control

Q: What about the T/C [13] of the same compound?
A: 98 % of control

Q: What about the T/C [14] of the same compound?
A: 102 % of control

Q: Which T/C (dose: 12.5 mg/kg/injection, schedule: Q04DX002 (ip), vehicle: saline with Tween-80) does the source give for `CC([NH-])CC(C)[NH-].O=C(O)C(=O)O.[Pt+2]` (centres undefined) here?
A: 150 % of control

Q: What about the T/C (dose: 25.0 mg/kg/injection, schedule: Q04DX002 (ip), vehicle: saline with Tween-80) of the same compound?
A: 174 % of control

Q: `COC(=O)/C=C/C=C(c1ccccc1)c1ccccc1` was tested. Which T/C [9] did it give?
A: 99 % of control

Q: What about the T/C [10] of the same compound?
A: 104 % of control

Q: And the T/C [11]?
A: 106 % of control

Q: And the T/C (dose: 400.0 mg/kg/injection, schedule: Q01DX009 (ip), vehicle: saline with Tween-80)?
A: 113 % of control

Q: What does the source list for `COc1ccc2nc3cc(Cl)ccc3c(NCCOCCO)c2c1`?
A: T/C [9]: 101 % of control; T/C [10]: 109 % of control

Q: `Cn1c(=O)c2nncnc2n(C)c1=O` was tested. Which T/C (dose: 25.0 mg/kg/injection, schedule: Q01DX005 (ip), vehicle: saline with Tween-80) did it give?
A: 96 % of control

Q: And the T/C (dose: 50.0 mg/kg/injection, schedule: Q01DX005 (ip), vehicle: saline with Tween-80)?
A: 93 % of control

Q: What about the T/C (dose: 100.0 mg/kg/injection, schedule: Q01DX005 (ip), vehicle: saline with Tween-80) of the same compound?
A: 93 % of control

Q: And the T/C (dose: 200.0 mg/kg/injection, schedule: Q01DX005 (ip), vehicle: saline with Tween-80)?
A: 94 % of control

Q: Which results are given for `OC(CN1CCCC2CCCCC21)c1cc2ccccc2c2ccccc12` (centres undefined)?
A: T/C [10]: 108 % of control; T/C [11]: 104 % of control

Q: Which T/C (dose: 50.0 mg/kg/injection, schedule: Q01DX005 (ip), vehicle: saline) does the source give for `O=C1NC(CCO)C(=O)NC1CCO` (centres undefined) here?
A: 100 % of control

Q: And the T/C (dose: 100.0 mg/kg/injection, schedule: Q01DX005 (ip), vehicle: saline)?
A: 100 % of control

Q: What about the T/C (dose: 200.0 mg/kg/injection, schedule: Q01DX005 (ip), vehicle: saline) of the same compound?
A: 106 % of control

Q: `O=C1Nc2ccccc2C1=Nc1ccc2[nH]c3ccccc3c2c1` was tested. Which T/C [6] did it give?
A: 92 % of control

Q: And the T/C [7]?
A: 93 % of control

Q: And the T/C [8]?
A: 88 % of control

Q: What does the source list for `CCOC(=O)c1cnc(-c2ccccc2)n(-c2ccccc2)c1=O`?
A: T/C [15]: 105 % of control; T/C [16]: 107 % of control

Q: With `CC1=CC(C/C(C)=C/COc2ccc3ccc(=O)oc3c2)OC1=O` (centres undefined) as the compound, how does the T/C [17] read?
A: 87 % of control

Q: And the T/C [18]?
A: 90 % of control

Q: What about the T/C [15] of the same compound?
A: 97 % of control

Q: `CCCCCCCCCCCCCCCCCCCC[N+]1(CC)CCOCC1` was tested. Which T/C (dose: 100.0 mg/kg/injection, schedule: Q04DX003 (ip), vehicle: saline with Tween-80) did it give?
A: 98 % of control

Q: And the T/C (dose: 200.0 mg/kg/injection, schedule: Q04DX003 (ip), vehicle: saline with Tween-80)?
A: 99 % of control

Q: And the T/C (dose: 400.0 mg/kg/injection, schedule: Q04DX003 (ip), vehicle: saline with Tween-80)?
A: 96 % of control

Q: With `O=C(C(=O)C(F)(F)C(F)(F)C(F)(F)F)c1ccccc1` as the compound, how does the T/C (dose: 50.0 mg/kg/injection, schedule: Q01DX005 (ip), vehicle: saline + Tween-80 + alcohol) read?
A: 102 % of control

Q: And the T/C (dose: 100.0 mg/kg/injection, schedule: Q01DX005 (ip), vehicle: saline + Tween-80 + alcohol)?
A: 97 % of control
